From BindingDB's records for doi:10.1016/S0960-894X(97)00319-3 (1997)

Assay: Inhibition of [125I]ET1 binding to porcine kidney inner medulla membranes

| SMILES | IC50 [nM] |
| --- | --- |
| O=C(O)c1c(-c2ccc3c(c2)OCO3)c2ccccc2n(Cc2ccccc2)c1=O [4-Benzo[1,3]dioxol-5-yl-1-benzyl-2-oxo-1,2-dihydro-quinoline-3-carboxylic acid] | > 10000 |
| CCOc1ccc2c(c1)c(-c1ccc(OC)cc1)c(C(=O)O)c(=O)n2Cc1cc(OC)ccc1OC [1-(2,5-Dimethoxy-benzyl)-6-ethoxy-4-(4-methoxy-phenyl)-2-oxo-1,2-dihydro-quinoline-3-carboxylic acid] | 200 |
| CCOc1ccc2c(c1)c(-c1ccc(OC)cc1)c(C(=O)O)c(=O)n2Cc1ccccc1OC [6-Ethoxy-1-(2-methoxy-benzyl)-4-(4-methoxy-phenyl)-2-oxo-1,2-dihydro-quinoline-3-carboxylic acid] | 500 |
| CCOc1ccc2c(c1)c(-c1ccc(OC)cc1OC)c(C(=O)O)c(=O)n2Cc1ccccc1OC [4-(2,4-Dimethoxy-phenyl)-6-ethoxy-1-(2-methoxy-benzyl)-2-oxo-1,2-dihydro-quinoline-3-carboxylic acid] | 540 |

Continued, values first:

| IC50 [nM] | SMILES |
| --- | --- |
| 450 | CCOc1ccc2c(c1)c(-c1ccc3c(c1)OCO3)c(C(=O)O)c(=O)n2Cc1ccccc1OC [4-Benzo[1,3]dioxol-5-yl-6-ethoxy-1-(2-methoxy-benzyl)-2-oxo-1,2-dihydro-quinoline-3-carboxylic acid] |
| 6800 | COc1ccc(Cn2c(=O)c(C(=O)O)c(-c3ccc4c(c3)OCO4)c3ccccc32)cc1 [4-Benzo[1,3]dioxol-5-yl-1-(4-methoxy-benzyl)-2-oxo-1,2-dihydro-quinoline-3-carboxylic acid] |
| 1300 | CCc1ccc2c(c1)c(-c1ccc3c(c1)OCO3)c(C(=O)O)c(=O)n2Cc1ccccc1OC [4-Benzo[1,3]dioxol-5-yl-6-ethyl-1-(2-methoxy-benzyl)-2-oxo-1,2-dihydro-quinoline-3-carboxylic acid] |
| 940 | COc1ccccc1Cn1c(=O)c(C(=O)O)c(-c2ccc3c(c2)OCO3)c2ccccc21 [4-Benzo[1,3]dioxol-5-yl-1-(2-methoxy-benzyl)-2-oxo-1,2-dihydro-quinoline-3-carboxylic acid] |
| 2600 | COc1ccccc1Cn1c(=O)c(C(=O)O)c(-c2ccc3c(c2)OCO3)c2c(OC)c(OC)ccc21 [4-Benzo[1,3]dioxol-5-yl-5,6-dimethoxy-1-(2-methoxy-benzyl)-2-oxo-1,2-dihydro-quinoline-3-carboxylic acid] |
